The source of these data is patent publication US9121859B2, “Compounds and methods for determination of FKBP-binding immunosuppressant drugs” (Siemens Healthcare Diagnostics Inc., priority 2012, dated 2015).

Assay [1] relates to endogenous specific binding proteins (FKBP) in whole blood. In words: ACMIA assay for sirolimus: release of sirolimus from endogenous binding substances in spiked whole blood by releasing agent. The conditions noted are these: for Drug concentration measured / Percent (%) displaced vs. SIRO: releasing agent 10 μg/mL. How it is done: (§1) Testing was carried out using the DIMENSION® RxL analyzer, available from Siemens Healthcare Diagnostics Inc., Newark Del. The instrument was employed using ACMIA immunoassay technology. The ACMIA assay method is described in U.S. Pat. Nos. 7,842,475, 7,186,518, 5,147,529, 5,128,103, 5,158,871, 4,661,408, 5,151,348, 5,302,532, 5,422,284, 5,447,870, and 5,434,051, the disclosures of which are incorporated herein in their entirety. In the embodiment of the ACMIA method used herein and discussed in more detail below, competition between tacrolimus analog on chrome particles and tacrolimus in patient samples for antibody for tacrolimus conjugated to an enzyme (the “conjugate”) is utilized to determine the amount of tacrolimus in patient samples. Conjugate that binds to the tacrolimus analog on chrome particles is removed by magnetic separation. The enzymatic activity from the conjugate remaining in the supernatant is measured and is directly proportional to the amount of tacrolimus in the patient sample. […] The enzymatic activity observed when no chrome particle is present is indicative of the total amount of enzymatic activity in the conjugate.
(§2) Preparation of pretreatment reagent solution. This pretreatment solution was prepared to contain an amount of releasing agent, 6.8 mg/mL PIPES 1.5 sodium salt (buffer), 0.3 mg/mL EDTA disodium (clot prevention agent), 1.0 mg/mL saponin (hemolytic agent), 0.2% PROCLIN® 300 (preservative), 0.024 mg/mL neomycin sulfate (preservative) and 0.99 mg/mL NaN3, pH 6.5. The amount of releasing agent in each of the pretreatment reagent solutions was 10 μg/mL. The releasing agent concentration in the final reaction mixture was equivalent to 46.7 μg/mL of the analog added from the sample.
Preparation of anti-sirolimus antibody-β-galactosidase conjugate. […] The antibody conjugate solution contained approximately 7.5 μg/mL anti-sirolimus antibody-β-galactosidase conjugate, 30 mg/mL protease free bovine serum albumin, 0.126 mg/mL MgCl2, 0.03 mL/mL of ethylene glycol, 35.14 mg/mL PIPES 1.5 sodium salt, 50 mg/mL NaCl and beta-gal mutein (inactivated β-galactosidase), pH 6.5.
Magnetic chrome particle preparation. Sirolimus chrome particles (immunoassay solid phase) were prepared by conjugating sirolimus-biotin conjugate to streptavidin-coated chrome particle (prepared in a manner similar to that described in U.S. Pat. No. 7,842,475). The chrome particle reagent contained approximately 2.5 mg/mL sirolimus chrome particle slurry, 60.8 mg/mL trehalose dihydrate and 7.2 mg/mL CARBOWAX®.
(§3) Preparation of samples. Aliquots of a whole blood pool are spiked with an amount of sirolimus so that the resulting concentration of sirolimus in the whole blood samples in the calibrators is as set forth in Table 1 (0.0, 5.1, 10.1, 20.6 and 31.6 ng/mL). Aliquots of a whole blood pool are spiked with an amount of tacrolimus so that the resulting concentration of […] (0.0, 2.6, 5.3, 11.6 and 30.1 ng/mL).
(§4) Pretreatment of samples. A set of samples was treated as follows: To each sample was added an amount of the pretreatment reagent solution from above for displacing sirolimus in the sample from endogenous specific binding proteins. The samples were incubated at 37° C. for a period of 140 minutes. Subsequently, each sample was subjected to the aforementioned assay, which is further described below; and signal (mAU) was measured and related to a concentration of analyte that represents the amount of free analyte (analyte that is not bound by endogeneous binding substances plus analyte that was displaced from endogeneous binding substances) in the samples.
Assay. The ACMIA assay for sirolimus was carried out as follows: 15 μL of a whole blood sample from above was mixed with the pretreatment reagent solution from above (Displacer) (Table 1) in a vessel on the DIMENSION® RxL analyzer.

Assay [2] deals with monoclonal anti-sirolimus antibody (clone 155-M1). Description: Calculated cross-reactivity of releasing agent with antibody of the sirolimus ACMIA assay. It counts as binding. The conditions noted are these: sirolimus assay; measured at calibrator of 0 ng/mL; measured value/46.7 μg/mL analog. How it is done: (§5) Preparation of anti-sirolimus antibody-β-galactosidase conjugate. Monoclonal anti-sirolimus antibody (clone 155-M1 from Wyeth Pharmaceutical) was conjugated to β-galactosidase using a standard heterobifunctional SMCC (succinimidyl trans-4-(N-maleimidylmethyl)cyclohexane-1-carboxylate) linker according to known techniques. The antibody conjugate solution contained approximately 7.5 μg/mL anti-sirolimus antibody-β-galactosidase conjugate, 30 mg/mL protease free bovine serum albumin, 0.126 mg/mL MgCl2, 0.03 mL/mL of ethylene glycol, 35.14 mg/mL PIPES 1.5 sodium salt, 50 mg/mL NaCl and beta-gal mutein (inactivated β-galactosidase), pH 6.5.
(§6) Anti-sirolimus antibody-β-galactosidase conjugate (50 μL) was added next to each of the reaction vessels and the mixture was held for a period of time (10 to 15 minutes) and at a temperature of 43° C. to allow sirolimus, if present, to react with the antibody reagent. Chrome particles with immobilized sirolimus-biotin conjugate to streptavidin-coated chrome particle were added (50 μL) to each of the reaction vessels and were allowed to bind un-bound conjugate. […] The sirolimus-bound conjugate was detected by transferring the supernatant from each of the reaction vessels to a photometric cuvette and measuring the enzymatic rate of the conjugate in the presence of chlorophenol red-β-D-galactopyranoside (CPRG). The rate for each reaction vessel was measured bichromatically at 577 and 700 nm. The results are summarized in Table 1 under the categories: instrument signal observed for calibrators, drug concentration measured in ng/mL, percent (%) displaced vs. SIRO and calculated antibody cross-reactivity (percent (%) times 100). Cross-reactivity was based on the following: • 1) 70 μL of pretreatment reagent solution was added to the reaction medium versus 15 μL of sample, total reaction mixture volume=305 μL. • 2) 10 μg/mL of SIRO analog was in the pretreatment reagent solution. • 3) 10 μg/mL of SIRO analog from pretreatment reagent is equivalent to 46.7 μg/mL of SIRO analog added from sample (Calculation: 70 μL×10 μg/mL/15 μL=46.7 μg/mL) • 4) Measured sirolimus value at 0 ng/mL calibrator. • 5) Measure value/46.7 is % cross-reactivity.

The subject of assay [3] is endogenous specific binding proteins (FKBP) in whole blood. Description: ACMIA assay for tacrolimus: release of tacrolimus from endogenous binding substances in spiked whole blood by releasing agent. The note with it: for Drug concentration measured / Percent (%) displaced vs. SIRO: releasing agent 10 μg/mL. The method, then: as §1, §2
as §5, with “anti-tacrolimus” for “anti-sirolimus”, “1H6, see for example U.S. Pat. No. 7,078,495) is” for “155-M1 from Wyeth Pharmaceutical) was”, “contains” for “contained”
The chrome particle reagent contained approximately 2.5 mg/mL tacrolimus chrome particle slurry, 60.8 mg/mL trehalose dihydrate and 7.2 mg/mL CARBOWAX®.
as §3, §4
The above format for releasing an analyte (using the concentration of releasing agent (Displacer) shown) and conducting an assay for the analyte was repeated for samples containing tacrolimus.

Assay [4] deals with monoclonal anti-tacrolimus antibody (clone 1H6). In words: Calculated cross-reactivity of releasing agent with antibody of the tacrolimus ACMIA assay. It counts as binding. The conditions noted are these: measured at calibrator of 0 ng/mL. The method, then:
as §5, with “anti-tacrolimus” for “anti-sirolimus”, “1H6, see for example U.S. Pat. No. 7,078,495) is” for “155-M1 from Wyeth Pharmaceutical) was”, “contains” for “contained”
as §6, with “reagent.” for “reagent. Chrome particles with immobilized sirolimus-biotin conjugate to streptavidin-coated chrome particle were added (50 μL) to each of the reaction vessels and were allowed to bind un-bound conjugate.”, “cross-reactivity. […]” for “cross-reactivity.”

[5] abbreviates: sirolimus calibrator 10.1 ng/mL.
Setting [6] is: sirolimus calibrator 20.6 ng/mL.
[7] abbreviates: sirolimus calibrator 31.6 ng/mL.
[8] abbreviates: tacrolimus calibrator 2.6 ng/mL.
Setting [9] is: tacrolimus calibrator 5.3 ng/mL.
Setting [10] is: tacrolimus calibrator 11.6 ng/mL.
[11] abbreviates: tacrolimus calibrator 30.1 ng/mL.

Consider “Diels-Alder adducts of 4-phenyl-1,2,4-triazoline-3,5-dione (PTAD) and sirolimus [Mixture V + VI]”, for which the “Suitability as releasing agent for sirolimus analyte” value in assay [1] (sirolimus assay, result in words) was “suitable as a releasing agents”. The “Drug concentration measured” value in assay [1] (sirolimus calibrator 0.0 ng/mL) was found to be 1.4 ng/mL; in assay [1] (sirolimus calibrator 5.1 ng/mL), 5.8 ng/mL; in assay [1] (setting [5]), 9.7 ng/mL; in assay [1] (setting [6]), 16.8 ng/mL; in assay [1] (setting [7]), 27.5 ng/mL; in assay [3] (tacrolimus calibrator 0.0 ng/mL) it was 0.6 ng/mL. Also, the “Drug concentration measured” value in assay [3] (setting [8]) is 2.9 ng/mL; in assay [3] (setting [9]), 4.7 ng/mL; in assay [3] (setting [10]), 9.5 ng/mL; in assay [3] (setting [11]), 23.5 ng/mL. The “Percent (%) displaced vs. SIRO” value in assay [1] (sirolimus calibrator 5.1 ng/mL) is reported as 114%; in assay [1] (setting [5]), 96%; in assay [1] (setting [6]), 82%; in assay [1] (setting [7]), 87%; in assay [3] (setting [8]) it was 111%; in assay [3] (setting [9]), 89%. Besides, the results for the “Percent (%) displaced vs. SIRO” value in assay [3] (setting [10]) and in assay [3] (setting [11]) were 82% and 78%, respectively. For the same substance, the “Calculated antibody cross-reactivity (percent (%) times 100)” value in assay [2] is on record as 0.29 % × 100; in assay [4], 0.13 % × 100. The “Suitability as releasing agent for tacrolimus analyte” value in assay [3] (tacrolimus assay, result in words) is recorded as “suitable as a releasing agents”.
